Measurements as given in US20230064983A1 (priority 2020, published 2023).

Tests used:
Ba/F3-EGFR L861Q cells = Ba/F3-EGFR L861Q cells (Homo sapiens, UniProt P00533, L861Q, cells depend on it); experiment: Ba/F3 cell survival assay, EGFR L861Q; type: cell-based; conditions: classical activating and rare EGFR mutations; Table 7; read-out: BA/F3 (EGFR L861Q) IC50
HCC-827 cells = experiment: HCC-827 cell proliferation assay (EGFRex19del); type: cell-based; conditions: Homo sapiens, HCC827, 72 h, read-out: HCC-827 IC50
Description: Cellular Data Description (HCC-827 cells, EGFRex19del)
(§1) HCC-827 cells were purchased from ATCC. 400 HCC-829 cells per well were seeded in growth medium (RPM11640, 10% FCS) in a 384-well plate (CORNING #3571). Seed reference plate for time zero determination on the same day. All plates were incubated overnight at 37° C. After 24 hours, test compound were added in 7-step dilution using HP Compound printer and incubated at 37° C. for 72 h. After 3 days, 30 μL/well CTG solution (Promega Cell Titer Glo solution; catalog #G755B and G756B) were added to each well, incubated for 30 minutes and the plate were read on PheraStar. Proliferation is calculated after subtracting time zero luminescence values from day 4 values and comparing to untreated wells.
(§2) The IC50 values were determined using the four parameter fit.

Ba/F3-EGFR-L858R cells = Ba/F3-EGFR-L858R cells (Homo sapiens, UniProt P00533, L858R, cells depend on it); experiment: Ba/F3 cell survival assay, EGFR L858R; type: cell-based; conditions: classical activating and rare EGFR mutations; Table 7; read-out: BA/F3 (EGFR L858R) IC50
[1] = molecular target: Ba/F3-EGFR-D770_N771insSVD cells (Homo sapiens, UniProt P00533, DUP768-770, cells depend on it); experiment: Ba/F3 cell survival assay, EGFR D770_N771insSVD; type: cell-based; conditions: Cell Titer-Glo, 48 h, without IL-3; Table 4; read-out: BA/F3 (insSVD) IC50
[2] = molecular target: Ba/F3-EGFR-E746_A750del C797S cells (Homo sapiens, UniProt P00533, DEL746-750/C797S, cells depend on it); experiment: Ba/F3 cell survival assay, EGFR E746_A750del C797S; type: cell-based; conditions: aquired resistance space; Table 8; read-out: BA/F3 (EGFR E746_A750del C797S) IC50
Ba/F3-EGFR-WT cells = Ba/F3-EGFR-WT cells (Homo sapiens, UniProt P00533); experiment: Ba/F3 cell survival assay, wild type EGFR; type: cell-based; conditions: Cell Titer-Glo, 48 h, with 10 ng/mL EGF; Table 4; read-out: BA/F3 (wild type) IC50
PC9 cells = experiment: PC9 cell proliferation assay (EGFRex19del); type: cell-based; conditions: Homo sapiens, PC-9, 72 h, read-out: PC9 IC50
Description: Cellular Data Description (PC9 cells, EGFRex19del)
as §1, with “PC9” for “HCC-827”, “Tokyo Medical College.” for “ATCC.”, “PC9” for “HCC-829”, “(DMEM,” for “(RPM11640,”
as §2

[3] = molecular target: Ba/F3-EGFR-H773_V774insNPH cells (Homo sapiens, UniProt P00533, DUP771-773, cells depend on it); experiment: Ba/F3 cell survival assay, EGFR H773_V774insNPH; type: cell-based; conditions: EGFR Exon20 insertion mutations; Table 6; read-out: BA/F3 (EGFR H773_774insNPH) IC50
[4] = molecular target: Ba/F3-EGFR-D770_N771insSVD C797S cells (Homo sapiens, UniProt P00533, DUP768-770/C797S, cells depend on it); experiment: Ba/F3 cell survival assay, EGFR D770_N771insSVD C797S; type: cell-based; conditions: aquired resistance space; Table 8; read-out: BA/F3 (EGFR 0770_N771 insSVD C797S) IC50
[5] = molecular target: Ba/F3-EGFR-D770_N771insNPG cells (Homo sapiens, UniProt P00533, INS772GNP, cells depend on it); experiment: Ba/F3 cell survival assay, EGFR D770_N771insNPG; type: cell-based; conditions: EGFR Exon20 insertion mutations; Table 6; read-out: BA/F3 (insNPG) IC50
[6] = molecular target: T1, EGFR with insertion SVD between D770 and N771 (mutEGFR D770_N771insSVD) (Homo sapiens, UniProt P00533, DUP768-770); experiment: Exon20-Mutant-EGFR(D770_N771insSVD) kinase assay (TR-FRET); type: biochemical; conditions: 2 mM ATP, Table 2
T1 construct: amino acids R669 to A1210; made in house; host or cells: Sf9 insect cells (baculovirus)

[7] = molecular target: Ba/F3-EGFR-L858R C797S cells (Homo sapiens, UniProt P00533, C797S/L858R, cells depend on it); experiment: Ba/F3 cell survival assay, EGFR L858R C797S; type: cell-based; conditions: aquired resistance space; Table 8; read-out: BA/F3 (EGFR L858R C797S) IC50
[8] = molecular target: Ba/F3-EGFR-E746_A750del cells (Homo sapiens, UniProt P00533, DEL746-750, cells depend on it); experiment: Ba/F3 cell survival assay, EGFR E746_A750del; type: cell-based; conditions: classical activating and rare EGFR mutations; Table 7; read-out: BA/F3 (EGFR E746_A750del) IC50
[9] = molecular target: Ba/F3-EGFR-V769_D770insASV cells (Homo sapiens, UniProt P00533, DUP767-769, cells depend on it); experiment: Ba/F3 cell survival assay, EGFR V769_D770insASV; type: cell-based; conditions: EGFR Exon20 insertion mutations; Table 6; read-out: BA/F3 (ASV) IC50
Ba/F3-EGFR-V769_D770insASV cells, sequence (P00533 with tags, fused parts or gaps DUP767-769): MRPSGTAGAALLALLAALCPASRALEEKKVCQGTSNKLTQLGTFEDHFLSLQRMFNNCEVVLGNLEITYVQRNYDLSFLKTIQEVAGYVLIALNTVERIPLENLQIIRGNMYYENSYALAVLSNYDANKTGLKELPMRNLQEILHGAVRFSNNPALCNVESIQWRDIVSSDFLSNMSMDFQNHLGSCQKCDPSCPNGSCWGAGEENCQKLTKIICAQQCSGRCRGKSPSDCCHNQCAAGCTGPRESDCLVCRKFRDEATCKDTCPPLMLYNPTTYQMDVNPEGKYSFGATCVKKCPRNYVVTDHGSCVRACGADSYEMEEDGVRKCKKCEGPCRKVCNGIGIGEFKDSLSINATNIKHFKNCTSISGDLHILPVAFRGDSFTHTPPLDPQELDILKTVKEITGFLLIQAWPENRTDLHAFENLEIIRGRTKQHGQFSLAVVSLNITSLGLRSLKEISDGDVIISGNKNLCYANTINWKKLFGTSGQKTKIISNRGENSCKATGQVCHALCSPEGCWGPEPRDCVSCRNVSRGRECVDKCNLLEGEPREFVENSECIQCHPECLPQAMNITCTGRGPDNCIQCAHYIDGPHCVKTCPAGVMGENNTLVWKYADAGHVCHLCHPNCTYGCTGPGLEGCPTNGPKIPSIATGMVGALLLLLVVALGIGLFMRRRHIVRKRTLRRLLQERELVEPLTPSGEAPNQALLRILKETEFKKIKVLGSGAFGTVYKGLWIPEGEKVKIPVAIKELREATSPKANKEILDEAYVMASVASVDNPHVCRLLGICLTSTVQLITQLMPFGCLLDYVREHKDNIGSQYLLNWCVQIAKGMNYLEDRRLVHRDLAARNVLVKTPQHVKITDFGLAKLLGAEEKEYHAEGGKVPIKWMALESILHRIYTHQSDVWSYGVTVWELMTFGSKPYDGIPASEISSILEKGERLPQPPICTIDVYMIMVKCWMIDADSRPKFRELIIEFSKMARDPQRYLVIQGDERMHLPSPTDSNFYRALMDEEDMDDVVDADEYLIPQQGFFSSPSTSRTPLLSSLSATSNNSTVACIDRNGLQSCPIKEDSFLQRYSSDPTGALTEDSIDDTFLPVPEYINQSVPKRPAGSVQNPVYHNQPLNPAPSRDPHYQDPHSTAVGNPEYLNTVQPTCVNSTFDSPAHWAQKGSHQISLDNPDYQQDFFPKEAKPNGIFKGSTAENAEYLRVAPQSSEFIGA

Ba/F3-EGFR-H773_V774insNPH cells, sequence (P00533 with tags, fused parts or gaps DUP771-773): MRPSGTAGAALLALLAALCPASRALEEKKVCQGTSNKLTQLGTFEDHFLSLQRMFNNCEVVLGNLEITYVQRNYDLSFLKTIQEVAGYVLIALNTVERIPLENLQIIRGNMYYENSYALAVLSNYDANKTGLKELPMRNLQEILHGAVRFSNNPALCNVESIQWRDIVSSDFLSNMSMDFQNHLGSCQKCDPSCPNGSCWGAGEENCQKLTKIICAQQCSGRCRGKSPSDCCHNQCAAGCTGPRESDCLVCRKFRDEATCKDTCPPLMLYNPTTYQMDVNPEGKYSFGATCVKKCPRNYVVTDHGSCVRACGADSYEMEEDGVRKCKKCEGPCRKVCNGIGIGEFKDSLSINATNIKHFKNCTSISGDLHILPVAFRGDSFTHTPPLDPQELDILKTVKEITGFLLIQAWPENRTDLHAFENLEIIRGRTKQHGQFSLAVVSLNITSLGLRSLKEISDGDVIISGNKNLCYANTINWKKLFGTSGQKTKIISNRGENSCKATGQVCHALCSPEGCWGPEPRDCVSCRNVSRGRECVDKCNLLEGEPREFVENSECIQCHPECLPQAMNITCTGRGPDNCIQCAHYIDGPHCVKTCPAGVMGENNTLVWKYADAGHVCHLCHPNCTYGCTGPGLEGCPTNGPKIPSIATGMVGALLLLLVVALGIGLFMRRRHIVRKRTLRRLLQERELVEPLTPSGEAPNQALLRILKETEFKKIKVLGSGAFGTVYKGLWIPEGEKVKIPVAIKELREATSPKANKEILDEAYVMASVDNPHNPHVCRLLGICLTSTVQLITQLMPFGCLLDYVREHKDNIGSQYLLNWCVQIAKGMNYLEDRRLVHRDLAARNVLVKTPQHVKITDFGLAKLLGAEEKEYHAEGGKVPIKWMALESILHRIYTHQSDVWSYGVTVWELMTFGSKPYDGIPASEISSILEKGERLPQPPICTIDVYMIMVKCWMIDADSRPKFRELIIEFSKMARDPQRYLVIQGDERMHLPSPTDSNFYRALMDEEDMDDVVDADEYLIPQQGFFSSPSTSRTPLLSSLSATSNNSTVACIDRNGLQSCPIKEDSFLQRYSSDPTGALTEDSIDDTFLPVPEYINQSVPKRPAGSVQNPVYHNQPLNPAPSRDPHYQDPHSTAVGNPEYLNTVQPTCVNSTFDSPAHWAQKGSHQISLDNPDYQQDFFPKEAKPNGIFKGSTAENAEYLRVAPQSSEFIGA
Ba/F3-EGFR-E746_A750del cells, sequence (P00533 with tags, fused parts or gaps DEL746-750): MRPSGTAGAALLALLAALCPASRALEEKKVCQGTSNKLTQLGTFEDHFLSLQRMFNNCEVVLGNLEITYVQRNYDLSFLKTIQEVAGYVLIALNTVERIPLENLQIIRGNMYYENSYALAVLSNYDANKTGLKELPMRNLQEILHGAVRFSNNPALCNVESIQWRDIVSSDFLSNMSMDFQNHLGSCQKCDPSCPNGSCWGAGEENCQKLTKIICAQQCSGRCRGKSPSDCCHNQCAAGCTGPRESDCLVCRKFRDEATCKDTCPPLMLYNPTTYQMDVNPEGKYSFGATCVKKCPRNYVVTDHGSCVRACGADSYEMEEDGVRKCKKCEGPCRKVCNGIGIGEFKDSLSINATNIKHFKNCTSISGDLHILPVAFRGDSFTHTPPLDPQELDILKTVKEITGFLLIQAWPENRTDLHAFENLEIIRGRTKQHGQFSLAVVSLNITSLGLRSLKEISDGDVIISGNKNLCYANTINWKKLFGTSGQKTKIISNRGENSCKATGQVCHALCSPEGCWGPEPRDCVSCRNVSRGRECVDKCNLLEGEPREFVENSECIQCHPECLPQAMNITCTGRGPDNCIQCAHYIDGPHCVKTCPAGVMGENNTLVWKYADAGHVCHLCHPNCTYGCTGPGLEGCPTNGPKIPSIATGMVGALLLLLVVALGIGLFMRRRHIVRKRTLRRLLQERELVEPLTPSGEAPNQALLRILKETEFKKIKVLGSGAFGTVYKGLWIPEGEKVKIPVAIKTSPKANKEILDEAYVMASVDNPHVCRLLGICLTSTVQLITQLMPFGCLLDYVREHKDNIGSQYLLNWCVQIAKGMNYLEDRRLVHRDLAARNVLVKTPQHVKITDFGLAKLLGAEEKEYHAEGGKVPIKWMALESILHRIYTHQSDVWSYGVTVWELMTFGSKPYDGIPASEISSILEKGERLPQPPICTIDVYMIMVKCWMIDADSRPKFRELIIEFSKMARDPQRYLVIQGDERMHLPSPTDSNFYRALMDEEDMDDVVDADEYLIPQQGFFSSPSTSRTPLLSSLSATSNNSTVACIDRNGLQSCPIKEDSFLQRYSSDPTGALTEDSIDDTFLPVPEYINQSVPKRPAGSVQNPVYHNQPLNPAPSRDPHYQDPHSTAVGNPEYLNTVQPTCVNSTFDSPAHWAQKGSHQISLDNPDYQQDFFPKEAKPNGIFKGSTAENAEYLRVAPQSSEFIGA
T1 sequence (P00533 other isoform, or with tags, fused parts or gaps DUP768-770): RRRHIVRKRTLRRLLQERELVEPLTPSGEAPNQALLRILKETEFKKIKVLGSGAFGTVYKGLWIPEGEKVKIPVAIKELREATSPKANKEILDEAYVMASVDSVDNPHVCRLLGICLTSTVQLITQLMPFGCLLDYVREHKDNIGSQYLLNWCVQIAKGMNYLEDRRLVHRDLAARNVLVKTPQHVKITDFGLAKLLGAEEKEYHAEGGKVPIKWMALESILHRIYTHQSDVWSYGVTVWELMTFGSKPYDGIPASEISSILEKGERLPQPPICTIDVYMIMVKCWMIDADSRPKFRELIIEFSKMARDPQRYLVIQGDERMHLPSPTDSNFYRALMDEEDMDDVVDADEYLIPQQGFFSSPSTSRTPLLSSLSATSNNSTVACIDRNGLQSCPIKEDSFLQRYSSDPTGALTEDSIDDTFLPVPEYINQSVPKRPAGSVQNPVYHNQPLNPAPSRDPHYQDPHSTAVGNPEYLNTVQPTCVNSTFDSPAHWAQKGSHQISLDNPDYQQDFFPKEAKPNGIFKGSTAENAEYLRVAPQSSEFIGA

| SMILES | IC50 (HCC-827 cells) [nM] | IC50 (PC9 cells) [nM] | mutEGFR (D770_N771insSVD) kinase assay IC50 [6] [nM] | GI50 (Ba/F3-EGFR L861Q cells) [nM] | GI50 (Ba/F3-EGFR-L858R cells) [nM] | GI50 [1] [nM] | GI50 [2] [nM] | GI50 (Ba/F3-EGFR-WT cells) [nM] | GI50 [3] [nM] | GI50 [4] [nM] | GI50 [5] [nM] | GI50 [7] [nM] | GI50 [8] [nM] | GI50 [9] [nM] |
| --- | --- | --- | --- | --- | --- | --- | --- | --- | --- | --- | --- | --- | --- | --- |
| COc1c(Cl)cccc1Nc1c(-c2ccncc2OCCC2CCCCO2)[nH]c2c1C(=O)N[C@H](C)C2 (single isomer, unassigned) [Example 87] | < 3 | 1.82 | 0.535 | 33.4 | 1.29 | 15 | 0.804 | 421 | 138 | 22.1 | 15 | 1.38 | 5 | 13.2 |
| Cc1c(Cl)cccc1Nc1c(-c2ccncc2OCC2COCCO2)[nH]c2c1C(=O)NCC2C (single isomer, unassigned) [Example 67, 3-(3-chloro-2-methyl-anilino)-2-[3-(1,4-dioxan-2-ylmethoxy)-4-pyridyl]-7-methyl-1,5,6,7-tetrahydropyrrolo[3,2-c]pyridin-4-one] | < 3 | 4.09 | 0.252 | 53.6 | 3.16 | 27.1 | 0.581 | 1150 | 117 | 40.6 | 13.5 | 2.49 | 1.41 | 40.3 |
| COCC(C)Oc1cnccc1-c1[nH]c2c(c1Nc1cccc(Cl)c1OC)C(=O)N[C@@H]1CCC[C@H]21 (single isomer, unassigned) [Example 51] | < 3 | 1.74 | 0.305 | 14.9 | 1.32 | 13.6 | 0.564 | 412 | 30.8 | 19.5 | 11.4 | 1.32 | 1.05 | 12.8 |

Second part, led by results:

| IC50 (HCC-827 cells) [nM] | IC50 (PC9 cells) [nM] | mutEGFR (D770_N771insSVD) kinase assay IC50 [6] [nM] | SMILES | GI50 (Ba/F3-EGFR L861Q cells) [nM] | GI50 (Ba/F3-EGFR-L858R cells) [nM] | GI50 [1] [nM] | GI50 [2] [nM] | GI50 (Ba/F3-EGFR-WT cells) [nM] | GI50 [3] [nM] | GI50 [4] [nM] | GI50 [5] [nM] | GI50 [7] [nM] | GI50 [8] [nM] | GI50 [9] [nM] |
| --- | --- | --- | --- | --- | --- | --- | --- | --- | --- | --- | --- | --- | --- | --- |
| < 3 | 3.43 | 0.175 | COc1c(Cl)cccc1Nc1c(-c2ccncc2OCC2COCCO2)[nH]c2c1C(=O)NCC2C (single isomer, unassigned) [Example 34, 3-(3-chloro-2-methoxy-anilino)-2-[3-(1,4-dioxan-2-ylmethoxy)-4-pyridyl]-7-methyl-1,5,6,7-tetrahydropyrrolo[3,2-c]pyridin-4-one] | 31.8 | 2.76 | 20.2 | 0.795 | 424 | 165 | 35.5 | 16.9 | 3.07 | 1.19 | 30.2 |
| < 3 | 1.84 | 0.188 | COc1c(Cl)cccc1Nc1c(-c2ccncc2OCCC(C)OC)[nH]c2c1C(=O)N[C@H](C)C2 (single isomer, unassigned) [Example 121] | 11.2 | 1.17 | 8.81 | 0.384 | 267 | 49.2 | 21.7 | 12.8 | 1.07 | 0.887 | 10.1 |
| < 3 | 6.46 | 0.201 | COc1c(Cl)cccc1Nc1c(-c2ccncc2OC[C@@H]2CCCO2)[nH]c2c1C(=O)NC1(CC1)C2 [Example 113, 3′-(3-chloro-2-methoxyanilino)-2′-(3-{[(2S)-oxolan-2-yl]methoxy}pyridin-4-yl)-1′,7′-dihydrospiro[cyclopropane-1,6′-pyrrolo[3,2-c]pyridin]-4′(5′H)-one] | 45 | 3.71 | 23.7 | 1.1 | 849 | 116 | 71.4 | 24.9 | 5.07 | 0.989 | 26 |
